According to patent publication US7625917B2, “Thiolesters and uses thereof” (priority 1998, dated 2009):
Where two headings read alike, the source gives them in different places.

Assays:
[1] = biological target: T1, recombinant HIV-1 NCp7 protein (Human immunodeficiency virus type 1 group M subtype B, UniProt P03347); assay: Trp37 zinc finger fluorescence (zinc ejection) assay; format: biochemical; details: for zinc finger reactivity in the presence of glutathione (in words): 2 molar excess of glutathione; for Zinc Finger Reactivity RFU/min: average decrease in relative fluorescence units over 30 min; for inhibition at 2000 µM (stock): Table 8, GSH +: 2 mM compound, 2 h at 37° C. with 4 mM reduced glutathione, 30 min incubation, read-out: Zinc Finger Reactivity % Decrease
T1 construct: recombinant HIV-1 NCp7 protein

[2] = biological target: T2, recombinant HIV-1 integrase (Human immunodeficiency virus type 1 group M subtype B, UniProt P03366); assay: HIV-1 integrase 3′ processing and strand transfer assay; format: biochemical
T2 construct: recombinant HIV-1 integrase; S. Hughes, ABL Basic Research NCI-FCRDC, Frederick Md
Procedure: The 5-bromovaleroyl thioester, compound 44, and two 5-pyridiniovaleroyl thioesters, compounds 45and 47, were analyzed in mechanistic and target-based assays. […] Assays for activity against HIV-1 reverse transcriptase rAdT (template/primer) and rCdG (template/primer) using recombinant HIV-1 reverse transcriptase (S. Hughes, ABL Basic Research NCI-FCRDC, Frederick Md.) were performed as described by Rice (1997) supra. Substrate cleavage of recombinant HIV-1 protease in the presence of test compounds using an HPLC-based methodology with the artificial substrate Ala-Ser-Glu-Asn-Try-Pro-Ile-Val-amide (Multiple Peptide Systems, San Diego Calif.) was performed as described by Rice (1997) supra. The ability of recombinant HIV-1 integrase (S. Hughes, ABL Basic Research NCI-FCRDC, Frederick Md.) to carry out 3′ processing and strand transfer activities in the presence of test compounds was performed as described by Buckheit (1994) AIDS Res. Hum. Retroviruses 10:1497-1506, and Turpin (1998) Antimicrob. Agents Chemother. 42: 487-494.

virus attachment = assay: cell-based p24 attachment assay; set-up: species or system HIV-1
Procedure: The cell-based p24 attachment assay was performed as described in Rice (1995) Science 270:1194-1197. Viral inactivation assays were carried out as described in Rice (1995) Science 270:1194-1197, and Turpin (1997) supra, with minor modifications. Briefly, MAGI-CCR-5 cells were plated (4×10^4 cells per well) in flat bottomed 2-cm well plates for 24 h, after which the culture media was removed and compound-treated virus was added. The virus used was obtained by transient transfection of pNL4-3 into HeLa cells yielding the replication competent NL4-3 virus. Virus containing supernatants were treated for 2 h at 37° C. after which residual compound was removed by centrifugation (18,000×g, 1 h, 4° C.). Virus pellets were resuspended and placed on the MAGI-CCR-5 monolayers and cultured for 48 h. Monolayers were fixed and stained with X-gal solution and blue cells counted.

[3] = test system: fusion of the HL2/3 and MAGI-CCR-5 cells; assay: viral fusion assay (HL2/3 and MAGI-CCR-5 co-culture); format: cell-based
Procedure: Determination of the effect of the test compounds on viral fusion were carried out as follows. Briefly, HL2/3 cells stably expressing HIV-1 Tat and cell surface gp120 and MAGI-CCR-5 cells stably expressing CD4 and CCR5 on their cell surface, containing a β-galactosidase reporter gene under the control of the HIV-1 LTR were pretreated with test compound for 1 h at 37° C. After incubation, the cells were mixed in […] (2×10^5 MAGI-CCR-5 to 8×10^5 HL2/3 cells) and co-cultured for 18 h at 37° C.; cultures were fixed and stained with X-gal solution for β-galactosidase activity. Blue cells represented the Tat transactivation of the HV-1 LTR upon fusion of the HL2/3 and MAGI-CCR-5 cells via the CD4/CCR5 co-receptor gp120 interaction.

[4] = Human immunodeficiency virus 1, Table 7, high dose test 100 μM, read-out: Attachment I50

Compound | zinc finger reactivity (in words) [1] | zinc finger reactivity in the presence of glutathione (in words) [1] | Zinc Finger Reactivity RFU/min ([1]; Table 5) | Zinc Finger Reactivity RFU/min ([1]; Table 6) | inhibition at 2000 µM (stock) [1] | inhibition of HIV-1 integrase (in words) [2] | inhibition of virus attachment (in words) (virus attachment) | IC50 (virus attachment; [4]) | inhibition of fusion to host cells (in words) [3] | zinc finger reactivity / zinc ejection rate [1] | Zinc Finger Reactivity RFU/min ([1]; Table 10) | IC50 [2] | IC50 (virus attachment; Human immunodeficiency virus 1, read-out: Attachment I50)
CC(=O)NS(=O)(=O)c1ccc(NC(=O)c2ccccc2SC(=O)CCCCBr)cc1 [Compound 44, N-[2-(5-bromovaleroylthio)benzoyl]sulfacetamide] | promoted metal ion (zinc) ejection | maintained the capacity to attack the cysteine thiols | 1.8 RFU/min | 1.8 RFU/min | 28% | did not inhibit | did not inhibit | > 100 µM | did not inhibit |  |  |  | 
CC(=O)NS(=O)(=O)c1ccc(NC(=O)c2ccccc2SC(=O)CCCC[n+]2ccccc2)cc1 [Compound 45, N-[2-(5-pyridinio-valeroylthio)benzoyl]sulfacetamide bromide] | promoted metal ion (zinc) ejection | maintained the capacity to attack the cysteine thiols | 3.6 RFU/min | 3.6 RFU/min | 36.9% | did not inhibit | did not inhibit | > 100 µM | did not inhibit | 3.6 RFU/min | 3.6 RFU/min |  | 
O=C(CCCC[n+]1ccccc1)Sc1ccccc1C(=O)Nc1ccc(S(=O)(=O)c2ccc([N+](=O)[O-])cc2)cc1 [Compound 47] | promoted metal ion (zinc) ejection | maintained the capacity to attack the cysteine thiols |  | 4.1 RFU/min | 21.1% | did not inhibit | did not inhibit |  | did not inhibit |  |  | > 100 µM | > 100 µM
O=C(O)CCCC[n+]1ccccc1.[Br-] [Compound 53, 5-pyridiniovaleric acid] |  |  |  | 4 RFU/min |  |  |  |  |  | 4 RFU/min |  |  | 
